Source: patent US20130074216A1, “TOMATO CATECHOL-O-METHYLTRANSFERASE SEQUENCES AND METHODS OF USE” (UNIVERSITY OF FLORIDA RESEARCH FOUNDATION, INC., priority 2011, published 2013)

B1: U582403: tomato catechol O-methyltransferase from S. lycopersicum, SEQ ID NO: 3 (protein)
chain: MGSTANIQLATQSEDEERNCTYAMQLLSSSVLPFVLHSTIQLDVFDILAKDKAATKLSALEIVSHMPNCKNPDAATMLDRMLYVLASYSLLDCSVVEEGNGVTERRYGLSRVGKFFVRDEDGASMGPLLALLQDKVFINSWFELKDAVLEGGVPFDRVHGVHAFEYPKLDPKFNDVFNQAMINHTTVVMKRILENYKGFENLKTLVDVGGGLGVNLKMITSKYPTIKGTNFDLPHVVQHAPSYPGVDHVGGDMFESVPQGDAIFMKWILHDWSDGHCLKLLKNCHKALPDNGKVIVVEANLPVKPDTDTTVVGVSQCDLIMMAQNPGGKERSEQEFRALASEAGFKGVNLICCVCNFWVMEFYK
modifications: S. lycopersicum

Columns and labels:
[1] = tested on: tomato fruit pericarp discs; test: Catechol feeding of tomato fruit pericarp discs, guaiacol by GC/MS; type: cell-based, Solanum lycopersicum cv. Flora-Dade; details: 10 μl of 1 M catechol per disc
Protocol: FIGS. 6A and 6B illustrate results of catechol feeding of tomato discs. Tomato fruit discs were made from the pericarp of Flora-Dade and SIOMT1OE ripe fruit and treated with water or catechol. Volatiles of the discs were collected after 5 h and analyzed using GC-MS. FIG. 6A illustrates the spectrum showing the guaiacol peak at 20.65 minutes. […] The table in FIG. 6B summarizes the differences in guaiacol production between Flora-Dade and SIOMT1OE.
Tomato discs were cut from pericarp tissue of ripe WT and SIOMT1 over-expressing fruit using a size 10 borer. A hundred discs were used for each sample treatment. Discs were placed in petri dishes and an X was cut in the top of each. 10 μl of either water or 1 M catechol dissolved in water was pipetted into each disc. Cover were place on petri dish and disc were left to incubate for 5 hr. Disc were then place in glass tube and volatiles were extracted as previously described. Guaiacol was quantified on GC/MS using a guaiacol standard curve.
Rather, low concentrations of catechol might limit the production of guaiacol in SIOMT1 plants. Thus, to further test this, catechol was fed to fruit pericarp discs of Flora-Dade (WT) and SIOMT1 over-expressing lines. Volatiles were collected after incubation for […]. Both WT and SIOMT1 discs produced increased guaiacol when fed catechol. […]

SIOMT1 = test: Substrate specificity assay of purified recombinant SIOMT1 with [14C]-AdoMet; type: biochemical, Solanum lycopersicum; details: 15 μM substrate, 30 min, 25°, products extracted with hexanes, scintillation counting
Protocol: FIG. 2 illustrates the chemical structure and relative activity of SIOMT1 on catechol and substrates with similar structure to catechol. Relative activity was determined by incubating purified SIOMT with excess amounts of [C^14]-AdoMet and […] of substrate. Products were extracted with hexanes and measured with a scintillation counter. Relative activity is expressed as a percentage of activity on catechol. 1=catechol; 2=guaiacol; 3=salicylic acid; 4=benzoic acid; 5=orcinol; 6=caffeic acid.
For substrate specificity assays, 5 μL purified enzyme was assayed at 25° in a 100 μL reaction containing 50 mM Tris-HCl, pH 7.5, 100 mM KCl, 2.8 mM BME, 15 μM substrate, 10 mM SAM, 0.4 mM [methyl-^14C] AdoMet (specific activity 50.4 mCi mmol^−1; Amersham). Substrates were diluted in 50% EtOH. Assays were done in triplicate, including boiled enzyme controls. After 30 min at 25° the reactions were stopped by adding equal volumes of hexanes. The methylated substrate was extracted on a vortex mixer for 15 sec and centrifuging at 13 200 g for 5 min. 50 μL of the organic layer was counted for 10 min in 3 ml Ready Gel Scintillation Fluid (Beckman Coulter, http://www.beckmancoulter.com). Counts for the boiled enzyme controls were subtracted from the sample counts, and activity for catechol was normalized to 100%. For the Km of catechol, procedures were the same as above, except for catechol concentrations. Concentrations used were: 0, 1, 5, 15, 25, and 50 μM.
To further test the specificity of SGN-U582403 (SIOMT1) for catechol, the activity of SIOMT1 on substrates with similar structure to catechol was measured. Purified protein was incubated with [^14C]-AdoMet and the following potential substrates: catechol, guaiacol, salicylic acid, benzoic acid, orcinol, or caffeic acid. Products were extracted with hexanes and measured with a scintillation counter.

[2] = Initial screen: catechol added to E. coli cultures expressing candidate OMT, guaiacol production measured; type: cell-based, Solanum lycopersicum cv. M82; details: induced protein in E. coli cultures
Protocol: Potential S. lycopersicum catechol OMT candidates were selected by identification of genes with homology to previously characterized catechol and caffeic acid OMTs (FIG. 1). Five candidate genes were selected, SGN-U582403, SGN-U565623, SGN-U319245, SGN-U575022, and SGN-U321686. Full length cDNAs were synthesized from S. lycopersicum cv. M82 ripe fruit RNA. Candidate genes were cloned into pET160 plasmids for expression in E. coli. Initial screens were performed by adding catechol directly to bacterial cultures expressing induced protein and measuring guaiacol production.

Molecule | guaiacol produced by catechol-fed discs relative to the unfed control ([1]; SIOMT1 over-expressing discs) [times] | guaiacol produced by catechol-fed discs relative to the unfed control ([1]; WT (Flora-Dade) discs) [times] | activity of SIOMT1 on substrate relative to catechol (SIOMT1) | conversion of catechol to guaiacol by candidate OMT [2]
Oc1ccccc1O [catechol] | 52 | 36 | preferentially methylated | 
O=C(O)/C=C/c1ccc(O)c(O)c1 [caffeic acid] |  |  | slight activity | 
Cc1cc(O)cc(O)c1 [orcinol] |  |  | slight activity | 
B1 |  |  |  | converted catechol to guaiacol
